From patent US7087762B2, “Long-lasting antimicrobial reaction product of allantoin and formaldehyde containing a low level of free formaldehyde” (ISP Investments Inc., priority 2002, dated 2006)

Key:
Format in all cases: cell-based
[1] = test system: EC (ECOLI, Escherichia coli); experiment: Preservative challenge test, nonionic emulsion
Description: (§1) A typical cosmetic emulsion was prepared for microbiological challenge testing and predetermined admixtures of a methylol compound and IPBC were added at various use levels. The emulsion thus prepared had the following composition:
(§2) The challenge tests were carried out using the following microorganisms: SA, ECOLI, PSA, PC, AN and CAN, in this manner. 50 g aliquots of the test emulsion containing various amounts of the preservative admixture were inoculated with approximately 10^7–10^8 of the challenge organisms. The test samples then were stirred to disperse the challenge inoculum. The samples were incubated and assayed at 48 hours, 7, 14, 21 and 28 days. The assays were performed on 1 g of the test sample by serially diluting 10^1 to 10^6 of the original concentration. The plating medium for bacteria was Letheen agar and for fungi it was low pH Mycophil agar with Tween 20. Each plated sample was incubated for 48 hours at 37° C. for bacteria, 5 days at 25° C. for mold, and 3 days at 25° C. for fungi. After incubation, readings of the number of colonies per milliliter (cfu/ml) were made. At 21 days the test product was reinoculated with half of the original inoculum.

AN (Aspergillus niger) = experiment: Preservative challenge test, nonionic emulsion
Description: as §1, §2

CAN (Candida albicans) = experiment: Preservative challenge test, nonionic emulsion
Description: as §1, §2

[2] = test system: SA (Staphylococcus aureus); experiment: Preservative challenge test, nonionic emulsion
Description: as §1, §2

[3] = test system: Candida albicans ATCC 10231; experiment: Minimum Inhibitory Concentration (MIC) test, tube dilution, static and cidal; conditions: C. albicans
Description: (§3) The measurement of the lowest effective concentration of an anti-microbial or anti-microbial blend is important for recommending use concentrations. The MIC test is an in vitro tube dilution procedure used to identify effective concentrations of anti-microbials. In this test, the experimental compound is diluted by serial concentrations into nutrient culture media. Test organisms are then inoculated into the anti-microbial solutions.
(§4) If the experimental compound is effective, there is no growth observed in the test dilution tubes and they are clear. If the experimental compound is not effective, the test dilution tubes are cloudy, indicating growth. This test will determine static as well as cidal activity concentrations.
(§5) • 1. Laminar flow hood (Baker Sterilgard SG 400) • 2. 18×150 mm culture tubes • 3. Stock antimicrobial solution • 4. Media: Trypticase soy broth (BBL 11043) and AOAC Letheen broth (BBL 10914) • 5. Test organisms: Staphylococcus aureus ATCC 6538, Escherichia coli ATCC 8739, Pseudomonas aeruginosa ATCC 9027, Burkholderia cepacia ATCC 25416, Candida albicans ATCC 10231, and Aspergillus niger ATCC 16404. • 6. Spectrophotometer (Spectronic 20D, Milton Roy)
(§6) • 1. Antimicrobial stock solutions are prepared at predetermined concentrations (i.e., 10% through 0.07%) depending on the test material. Serial doubling dilutions are made as follows. Each culture tube contains 5 mls of trypticase soy broth. Five mls of the stock solution are added to the first tube and vortexed. 5 mls are then removed and placed into the second tube, (and so on, until the last tube). At the final test concentration, 5 mls of the broth/antimicrobial mixture is decanted out. • 2. The test organisms are prepared as with any organism inoculum (MLM 100-3, MLM 100-4, and MLM 100-5). A saline suspension of each organism is prepared. The bacterial organisms and the yeast are a standardized at a concentration of 1×10^6 cfu/ml. The mold inoculum is approximately 1×10^5 cfu/ml. • 3. Inoculate each culture tube with 0.10 mls of organism inoculum and vortex. • 4. Incubate bacterial tubes for 24 hours at 35° C. Incubate yeast or mold tubes for 48 hours at 25° C. Read for growth; turbid tubes for bacteria and yeast; mold clearly visible tubes. This is the minimum inhibitory concentration (static activity). • 5. After the tubes are read, transfer all “clear” tubes and the first cloudy (growth) tube into Letheen broth containing neutralizers. Incubate the Letheen broth tubes for 48 hours at the bacterial or fungal incubation temperatures. Read for growth; turbid tubes for bacteria and yeast; mold clearly visible in mold tubes. This is the cidal activity concentration. Discussion
(§7) The cidal activity of an anti-microbial can be rapidly screened by means of a MIC test before further evaluation tests, such as longer preservative efficacy tests, are performed. This test is a tube serial dilution procedure limited only by the water solubility of the material. Where anti-microbial materials are slightly insoluble, leaving the TSB broth turbid, a procedure modification can be made. Tubes are incubated for 24 hours (bacteria) or 48 hours (fungi) but instead of transfer to Letheen broth, the TSB tubes are streaked onto Letheen agar. The agar plates are then incubated appropriately and then read for absence or presence of growth. Depending on the degree of insolubility, a measure of cidal activity may be the only parameter measured.
(§8) Anti-microbial neutralization is important in this screening test. […] These are to be determined prior to testing.

[4] = test system: Aspergillus niger ATCC 16404; experiment: as above; conditions: A. niger
Description: as §3, §4, §5, §6, §7, §8

[5] = test system: Staphylococcus aureus ATCC 6538; experiment: as above; conditions: Staph aureus
Description: as §3, §4, §5, §6, §7, §8

[6] = test system: Pseudomonas aeruginosa ATCC 9027; experiment: as above; conditions: P. aeruginosa
Description: as §3, §4, §5, §6, §7, §8

[7] = test system: Burkholderia cepacia ATCC 25416; experiment: as above; conditions: B. cepacia
Description: as §3, §4, §5, §6, §7, §8

[8] = test system: Escherichia coli ATCC 8739; experiment: as above; conditions: E. coli
Description: as §3, §4, §5, §6, §7, §8

What does the source list for `O=C1C(N(CO)C(=O)NCO)N(CO)C(=O)N1CO` (stereo not shown) [Germall II]?
cfu/ml, 48 hrs ([1]; 2000 ppm): <10 cfu/ml; cfu/ml, 7 days ([1]; 2000 ppm): <10 cfu/ml; cfu/ml, 14 days ([1]; 2000 ppm): <10 cfu/ml; cfu/ml, 21 days ([1]; 2000 ppm): <10 cfu/ml; cfu/ml, 28 days ([1]; 2000 ppm): <10 cfu/ml; cfu/ml, 48 hrs ([1]; 4000 ppm): <10 cfu/ml; cfu/ml, 7 days ([1]; 4000 ppm): <10 cfu/ml; cfu/ml, 14 days ([1]; 4000 ppm): <10 cfu/ml; cfu/ml, 21 days ([1]; 4000 ppm): <10 cfu/ml; cfu/ml, 28 days ([1]; 4000 ppm): <10 cfu/ml; cfu/ml, 48 hrs (AN (Aspergillus niger); 2000 ppm): <10 cfu/ml; cfu/ml, 7 days (AN (Aspergillus niger); 2000 ppm): <10 cfu/ml; cfu/ml, 14 days (AN (Aspergillus niger); 2000 ppm): <10 cfu/ml; cfu/ml, 21 days (AN (Aspergillus niger); 2000 ppm): <10 cfu/ml; cfu/ml, 28 days (AN (Aspergillus niger); 2000 ppm): <10 cfu/ml; cfu/ml, 48 hrs (AN (Aspergillus niger); 4000 ppm): <10 cfu/ml; cfu/ml, 7 days (AN (Aspergillus niger); 4000 ppm): <10 cfu/ml; cfu/ml, 14 days (AN (Aspergillus niger); 4000 ppm): <10 cfu/ml; cfu/ml, 21 days (AN (Aspergillus niger); 4000 ppm): <10 cfu/ml; cfu/ml, 28 days (AN (Aspergillus niger); 4000 ppm): <10 cfu/ml; cfu/ml, 48 hrs (CAN (Candida albicans); 2000 ppm): 320,000 cfu/ml; cfu/ml, 7 days (CAN (Candida albicans); 2000 ppm): 720,000 cfu/ml; cfu/ml, 14 days (CAN (Candida albicans); 2000 ppm): 650,000 cfu/ml; cfu/ml, 21 days (CAN (Candida albicans); 2000 ppm): 730,000 cfu/ml; cfu/ml, 28 days (CAN (Candida albicans); 2000 ppm): >1E6 cfu/ml; cfu/ml, 48 hrs (CAN (Candida albicans); 4000 ppm): 50 cfu/ml; cfu/ml, 7 days (CAN (Candida albicans); 4000 ppm): 10,000 cfu/ml; cfu/ml, 14 days (CAN (Candida albicans); 4000 ppm): 620,000 cfu/ml; cfu/ml, 21 days (CAN (Candida albicans); 4000 ppm): 460,000 cfu/ml; cfu/ml, 28 days (CAN (Candida albicans); 4000 ppm): >1E6 cfu/ml; cfu/ml, 48 hrs ([2]; 2000 ppm): <10 cfu/ml; cfu/ml, 7 days ([2]; 2000 ppm): <10 cfu/ml; cfu/ml, 14 days ([2]; 2000 ppm): <10 cfu/ml; cfu/ml, 21 days ([2]; 2000 ppm): <10 cfu/ml; cfu/ml, 28 days ([2]; 2000 ppm): <10 cfu/ml; cfu/ml, 48 hrs ([2]; 4000 ppm): <10 cfu/ml; cfu/ml, 7 days ([2]; 4000 ppm): <10 cfu/ml; cfu/ml, 14 days ([2]; 4000 ppm): <10 cfu/ml; cfu/ml, 21 days ([2]; 4000 ppm): <10 cfu/ml; cfu/ml, 28 days ([2]; 4000 ppm): <10 cfu/ml; CIDAL (cidal activity concentration) [3]: >5000 ppm; STATIC (minimum inhibitory concentration) [3]: 5000 ppm; CIDAL (cidal activity concentration) [4]: 2500 ppm; STATIC (minimum inhibitory concentration) [4]: 2500 ppm; CIDAL (cidal activity concentration) [5]: 1250 ppm; STATIC (minimum inhibitory concentration) [5]: 300 ppm; CIDAL (cidal activity concentration) [6]: 1250 ppm; STATIC (minimum inhibitory concentration) [6]: 600 ppm; CIDAL (cidal activity concentration) [7]: 600 ppm; STATIC (minimum inhibitory concentration) [7]: 150 ppm; CIDAL (cidal activity concentration) [8]: 1250 ppm; STATIC (minimum inhibitory concentration) [8]: 600 ppm
